Assay results taken from ChEMBL document CHEMBL3885881, “DrugMatrix”.

Species on record: Rattus norvegicus
Test: DrugMatrix - Regimen: Daily Repeat
Type: toxicity, organism-based, Sprague-Dawley
Set-up: regimen Daily Repeat, gender Male, age 6-8 weeks
Details: in vivo, po, route oral GAVAGE, vehicle .5 % CMC; for ABSOLUTE BASOPHIL / ABSOLUTE EOSINOPHIL / ABSOLUTE LYMPHOCYTE / ABSOLUTE MONOCYTE / ABSOLUTE SEGMENTED NEUTROPHIL / BASOPHIL / EOSINOPHIL / ERYTHROCYTE COUNT / HEMATOCRIT / HEMOGLOBIN / LEUKOCYTE COUNT / LYMPHOCYTE / MEAN CORPUSCULAR HEMOGLOBIN / MEAN CORPUSCULAR HEMOGLOBIN CONCENTRATION / MEAN CORPUSCULAR VOLUME / MONOCYTE / NEUTROPHIL / NUCLEATED RED BLOOD CELLS / PLATELET COUNT: tissue Blood; for ALANINE AMINOTRANSFERASE / ALBUMIN / ALKALINE PHOSPHATASE / ASPARTATE AMINOTRANSFERASE / BLOOD UREA NITROGEN / CARBON DIOXIDE / CHLORIDE / CHOLESTEROL / CREATINE PHOSPHOKINASE / CREATININE / GLUCOSE / LACTATE DEHYDROGENASE / LIPASE / PHOSPHORUS / POTASSIUM / SODIUM / TOTAL BILIRUBIN / TOTAL PROTEIN / URIC ACID: tissue Plasma
[1] = 12 mg/kg, 72 h, dose level Low, time 3 day
[2] = 12 mg/kg, 120 h, dose level Low, time 5 day
[3] = 1200 mg/kg, 72 h, dose level High, time 3 day
[4] = 1200 mg/kg, 120 h, dose level High, time 5 day

## CC(=O)OCC(COC(C)=O)OC(C)=O [TRIACETIN]
[1]
  ABSOLUTE BASOPHIL: 0 CELLS/uL
  ABSOLUTE EOSINOPHIL: 0 CELLS/uL
  ABSOLUTE LYMPHOCYTE: 13591 CELLS/uL
  ABSOLUTE MONOCYTE: 0 CELLS/uL
  ABSOLUTE SEGMENTED NEUTROPHIL: 1342.33 CELLS/uL
  BASOPHIL: 0%
  EOSINOPHIL: 0%
  ERYTHROCYTE COUNT: 5.57 x10E6/uL
  HEMATOCRIT: 35.43%
  HEMOGLOBIN: 13.97 G/DL
  LEUKOCYTE COUNT: 14.93 x10E3/uL
  LYMPHOCYTE: 91.33%
  MEAN CORPUSCULAR HEMOGLOBIN: 25.13 pg
  MEAN CORPUSCULAR HEMOGLOBIN CONCENTRATION: 39.43 G/DL
  MEAN CORPUSCULAR VOLUME: 63.77 fL
  MONOCYTE: 0%
  NEUTROPHIL: 8.67%
  NUCLEATED RED BLOOD CELLS: 0 /100WBC
  PLATELET COUNT: 1332 x10E3/uL
  ALANINE AMINOTRANSFERASE: 52 u/L
  ALBUMIN: 4.5 G/DL
  ALKALINE PHOSPHATASE: 453.33 u/L
  ASPARTATE AMINOTRANSFERASE: 96.33 u/L
  BLOOD UREA NITROGEN: 14.33 mg/dL
  CARBON DIOXIDE: 21.67 mmol/L
  CHLORIDE: 105 MEQ/L
  CHOLESTEROL: 71.67 mg/dL
  CREATINE PHOSPHOKINASE: 251 u/L
  CREATININE: 0.21 mg/dL
  GLUCOSE: 185 mg/dL
  LACTATE DEHYDROGENASE: 165.33 u/L
  LIPASE: 9.33 u/L
  PHOSPHORUS: 13.93 mg/dL
  POTASSIUM: 6.64 MEQ/L
  SODIUM: 149.57 MEQ/L
  TOTAL BILIRUBIN: 0.17 mg/dL
  TOTAL PROTEIN: 6.2 G/DL
  URIC ACID: 2.07 mg/dL
[2]
  ABSOLUTE BASOPHIL: 0 CELLS/uL
  ABSOLUTE EOSINOPHIL: 0 CELLS/uL
  ABSOLUTE LYMPHOCYTE: 15649 CELLS/uL
  ABSOLUTE MONOCYTE: 168.33 CELLS/uL
  ABSOLUTE SEGMENTED NEUTROPHIL: 1016 CELLS/uL
  BASOPHIL: 0%
  EOSINOPHIL: 0%
  ERYTHROCYTE COUNT: 5.29 x10E6/uL
  HEMATOCRIT: 33.97%
  HEMOGLOBIN: 13.27 G/DL
  LEUKOCYTE COUNT: 16.83 x10E3/uL
  LYMPHOCYTE: 93%
  MEAN CORPUSCULAR HEMOGLOBIN: 25.03 pg
  MEAN CORPUSCULAR HEMOGLOBIN CONCENTRATION: 39.07 G/DL
  MEAN CORPUSCULAR VOLUME: 64.17 fL
  MONOCYTE: 1%
  NEUTROPHIL: 6%
  NUCLEATED RED BLOOD CELLS: 0 /100WBC
  PLATELET COUNT: 1422 x10E3/uL
  ALANINE AMINOTRANSFERASE: 45.67 u/L
  ALBUMIN: 4.27 G/DL
  ALKALINE PHOSPHATASE: 402 u/L
  ASPARTATE AMINOTRANSFERASE: 80.33 u/L
  BLOOD UREA NITROGEN: 15 mg/dL
  CARBON DIOXIDE: 24.33 mmol/L
  CHLORIDE: 103.67 MEQ/L
  CHOLESTEROL: 58 mg/dL
  CREATINE PHOSPHOKINASE: 234 u/L
  CREATININE: 0.12 mg/dL
  GLUCOSE: 156 mg/dL
  LACTATE DEHYDROGENASE: 145 u/L
  LIPASE: 8.33 u/L
  PHOSPHORUS: 14.27 mg/dL
  POTASSIUM: 7.19 MEQ/L
  SODIUM: 146.97 MEQ/L
  TOTAL BILIRUBIN: 0.17 mg/dL
  TOTAL PROTEIN: 5.73 G/DL
  URIC ACID: 1.77 mg/dL
[3]
  ABSOLUTE BASOPHIL: 0 CELLS/uL
  ABSOLUTE EOSINOPHIL: 0 CELLS/uL
  ABSOLUTE LYMPHOCYTE: 15023 CELLS/uL
  ABSOLUTE MONOCYTE: 340 CELLS/uL
  ABSOLUTE SEGMENTED NEUTROPHIL: 1637 CELLS/uL
  BASOPHIL: 0%
  EOSINOPHIL: 0%
  ERYTHROCYTE COUNT: 5.45 x10E6/uL
  HEMATOCRIT: 35.37%
  HEMOGLOBIN: 13.63 G/DL
  LEUKOCYTE COUNT: 17 x10E3/uL
  LYMPHOCYTE: 88%
  MEAN CORPUSCULAR HEMOGLOBIN: 25 pg
  MEAN CORPUSCULAR HEMOGLOBIN CONCENTRATION: 38.57 G/DL
  MEAN CORPUSCULAR VOLUME: 64.9 fL
  MONOCYTE: 2%
  NEUTROPHIL: 10%
  NUCLEATED RED BLOOD CELLS: 0 /100WBC
  PLATELET COUNT: 1322 x10E3/uL
  ALANINE AMINOTRANSFERASE: 49.33 u/L
  ALBUMIN: 4.13 G/DL
  ALKALINE PHOSPHATASE: 331 u/L
  ASPARTATE AMINOTRANSFERASE: 79.33 u/L
  BLOOD UREA NITROGEN: 14 mg/dL
  CARBON DIOXIDE: 19 mmol/L
  CHLORIDE: 102 MEQ/L
  CHOLESTEROL: 69.67 mg/dL
  CREATINE PHOSPHOKINASE: 229 u/L
  CREATININE: 0.18 mg/dL
  GLUCOSE: 149.33 mg/dL
  LACTATE DEHYDROGENASE: 172.67 u/L
  LIPASE: 10 u/L
  PHOSPHORUS: 14.13 mg/dL
  POTASSIUM: 7.15 MEQ/L
  SODIUM: 145.03 MEQ/L
  TOTAL BILIRUBIN: 0.17 mg/dL
  TOTAL PROTEIN: 5.83 G/DL
  URIC ACID: 1.73 mg/dL
[4]
  ABSOLUTE BASOPHIL: 0 CELLS/uL
  ABSOLUTE EOSINOPHIL: 0 CELLS/uL
  ABSOLUTE LYMPHOCYTE: 12251.33 CELLS/uL
  ABSOLUTE MONOCYTE: 0 CELLS/uL
  ABSOLUTE SEGMENTED NEUTROPHIL: 1215.33 CELLS/uL
  BASOPHIL: 0%
  EOSINOPHIL: 0%
  ERYTHROCYTE COUNT: 5.48 x10E6/uL
  HEMATOCRIT: 34.33%
  HEMOGLOBIN: 13.57 G/DL
  LEUKOCYTE COUNT: 13.47 x10E3/uL
  LYMPHOCYTE: 91%
  MEAN CORPUSCULAR HEMOGLOBIN: 24.77 pg
  MEAN CORPUSCULAR HEMOGLOBIN CONCENTRATION: 39.6 G/DL
  MEAN CORPUSCULAR VOLUME: 62.6 fL
  MONOCYTE: 0%
  NEUTROPHIL: 9%
  NUCLEATED RED BLOOD CELLS: 0 /100WBC
  PLATELET COUNT: 1274.67 x10E3/uL
  ALANINE AMINOTRANSFERASE: 49.33 u/L
  ALBUMIN: 4.07 G/DL
  ALKALINE PHOSPHATASE: 315.33 u/L
  ASPARTATE AMINOTRANSFERASE: 87.67 u/L
  BLOOD UREA NITROGEN: 16.67 mg/dL
  CARBON DIOXIDE: 25 mmol/L
  CHLORIDE: 103 MEQ/L
  CHOLESTEROL: 71 mg/dL
  CREATINE PHOSPHOKINASE: 262.67 u/L
  CREATININE: 0.16 mg/dL
  GLUCOSE: 147.33 mg/dL
  LACTATE DEHYDROGENASE: 331 u/L
  LIPASE: 8.33 u/L
  PHOSPHORUS: 13.2 mg/dL
  POTASSIUM: 6.8 MEQ/L
  SODIUM: 145.37 MEQ/L
  TOTAL BILIRUBIN: 0.17 mg/dL
  TOTAL PROTEIN: 6 G/DL
  URIC ACID: 1.37 mg/dL
